From US10501518B2 (priority 2013, dated 2019)
Starred links: 1 amine or outer side, 2 acyl side, 3 side chain; linkers in the order of their positions; H or OH if unused. Non-standard residues stand in square brackets, D forms with d. Residues, ends and D or L forms follow the SMILES beside them. No end group written: not given here. *: point of attachment. NH(1S,2S-2-CONH2-cPent) = NC(=O)[C@H]1CCC[C@@H]1N*; X12 = O=C([C@H]1CCC[C@@H]1N[*:1])[*:2]; X13 = O=C([C@H]1CNC[C@@H]1N[*:1])[*:2]; ACPC(1S,2S) = N[C@H]1CCC[C@@H]1C(=O)*; hArg = N=C(N)NCCCC[C@H](N)C(=O)O; Aib = CC(C)(N)C(=O)O

Assays:
[1] = Stability in simulated gastric fluid; type: in vitro ADME
PTHR1 = target: T1, PTHR1 (Homo sapiens, UniProt Q03431); assay: Inhibition of PTH-induced PTHR1 cAMP signaling by bPTH(7-34) analogs; settings: Table 18; [Inhibitor] = 1 μM
T1 sequence (Q03431 27-593): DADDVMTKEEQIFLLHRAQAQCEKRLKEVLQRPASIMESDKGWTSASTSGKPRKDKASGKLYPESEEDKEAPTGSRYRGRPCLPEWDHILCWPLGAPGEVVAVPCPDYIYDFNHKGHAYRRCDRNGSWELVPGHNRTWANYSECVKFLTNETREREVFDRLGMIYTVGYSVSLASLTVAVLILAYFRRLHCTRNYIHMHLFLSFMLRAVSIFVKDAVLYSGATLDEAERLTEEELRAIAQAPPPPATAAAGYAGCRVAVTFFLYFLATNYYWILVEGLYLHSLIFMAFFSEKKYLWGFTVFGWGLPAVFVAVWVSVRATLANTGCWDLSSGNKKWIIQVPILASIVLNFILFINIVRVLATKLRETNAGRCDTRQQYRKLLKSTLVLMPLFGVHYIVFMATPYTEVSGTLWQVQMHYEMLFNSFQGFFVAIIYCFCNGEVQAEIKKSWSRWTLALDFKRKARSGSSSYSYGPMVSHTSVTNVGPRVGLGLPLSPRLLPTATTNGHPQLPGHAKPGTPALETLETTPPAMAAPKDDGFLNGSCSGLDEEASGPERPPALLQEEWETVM

| stability in simulated gastric fluid [1] | EC50(+)inhibitor/EC50(−)inhibitor (PTHR1) | Molecule |
| --- | --- | --- |
| good stability | – | CSCC[C@H](NC(=O)[C@H]1CCC[C@@H]1NC(=O)[C@H](CCC(N)=O)NC(=O)[C@H]1CCC[C@@H]1NC(=O)[C@H](CCC(=O)O)NC(=O)C(C)(C)NC(=O)[C@@H](NC(=O)[C@H]1CCC[C@@H]1N)C(C)C)C(=O)N[C@@H](Cc1cnc[nH]1)C(=O)N[C@@H](CCC(N)=O)C(=O)N[C@@H](CCCCNC(=N)N)C(=O)N[C@@H](C)C(=O)N[C@@H](CCCCN)C(=O)N[C@H]1CCC[C@@H]1C(=O)N[C@@H](CC(C)C)C(=O)N[C@@H](CC(N)=O)C(=O)N[C@@H](CO)C(=O)N[C@H]1CCC[C@@H]1C(=O)N[C@@H](CCCNC(=N)N)C(=O)N[C@@H](CCCNC(=N)N)C(=O)N[C@H](C(=O)N[C@H]1CNC[C@@H]1C(=O)N[C@@H](Cc1c[nH]c2ccccc12)C(=O)N[C@@H](CC(C)C)C(=O)N[C@@H](CCCNC(=N)N)C(=O)N[C@H]1CNC[C@@H]1C(=O)N[C@@H](CCCCN)C(=O)N[C@@H](CC(C)C)C(=O)N[C@@H](CCC(N)=O)C(=O)N[C@H]1CCC[C@@H]1C(=O)N[C@H](C(=O)N[C@@H](Cc1cnc[nH]1)C(=O)N[C@@H](CC(N)=O)C(=O)N[C@H]1CCC[C@@H]1C(N)=O)C(C)C)C(C)C [M-X1,5,7-FcycD6, XVUEXQXMHQ^hRAKXLNSXRRVZWLRZKLQXVHNX--NH2] ({ACPC(1S,2S)}-V[Aib]E[X12]Q[X12]MHQ[hArg]AK[X12]LNS[X12]RRV[X13]WLR[X13]KLQ[X12]VHN-{NH(1S,2S-2-CONH2-cPent)}) |
| – | 60.12 | FMHNLWKHLSSMERVEWLRKKLQDVHNF-NH2 [bPTH(7-34)dTrp12, reference compound] |
| – | 1.60 | LMHNLGKHLNSMERVEWLRKKLQDVHNF-NH2 [hPTH(7-34), reference compound] |
| – | 3.50 | XMHNLWKXLSSXERVZWLRZKLQXVHNX-NH2 [FCycD6 bPTH(7-34) dTrp12 ACPC7] |
